Consider 34 molecules from patent US7598382B2, “Aryl substituted imidazoquinolines” (Coley Pharmaceutical Group, Inc., priority 2002, dated 2009).

Usually melting point stands for the temperature of the solid-liquid transition.

Where a name gives a salt, the structure may show the parent alone. Bounds are passed on as bounds.

The molecule `CCOCc1nc2c(N)nc3cc(-c4cccnc4)ccc3c2n1CC(C)(C)OCCS(C)(=O)=O` [Example 363, 2-Ethoxymethyl-1-{2-[2-(methanesulfonyl)ethoxy]-2-methylpropyl}-7-(pyridin-3-yl)-1H-imidazo[4,5-c]quinolin-4-amine] yielded a melting point of 202 to 204 °C.

For the molecule `CCOCc1nc2c(N)nc3cc(-c4cccnc4)ccc3c2n1CCCCCS(=O)(=O)N(C)C` [Example 370, Dimethyl 5-[4-amino-2-ethoxymethyl-7-(pyridin-3-yl)-1H-imidazo[4,5-c]quinolin-1-yl]pentane-1-sulfonamide], the melting point was 159 to 160 °C. For `CCOCc1nc2c(N)nc3cc(-c4cncc(CO)c4)ccc3c2n1CCCCN1CCCS1(=O)=O` [Example 155, (5-{4-Amino-1-[4-(1,1-dioxidoisothiazolidin-2-yl)butyl]-2-ethoxymethyl-1H-imidazo[4,5-c]quinolin-7-yl}pyridin-3-yl)methanol] the value was 184.5 to 186 °C; for `CCCCc1nc2c(N)nc3cc(/C=C/c4ccccc4)ccc3c2n1CC(C)C` [Example 7, 2-Butyl-1-isobutyl-7-[(E)-2-phenylethenyl]-1H-imidazo[4,5-c]quinolin-4-amine], 215 to 216 °C; for `CCOCc1nc2c(N)nc3ccc(C=Cc4ccccc4)cc3c2n1CC(C)(C)O` [Example 147, 1-(4-Amino-2-ethoxymethyl-8-styryl-1H-imidazo[4,5-c]quinolin-1-yl)-2-methylpropan-2-ol], 217 to 218 °C. Take `COCc1nc2c(N)nc3cc(-c4cnccc4OC)ccc3c2n1CC(C)(C)O` [Example 399, 1-[4-Amino-2-methoxymethyl-7-(4-methoxypyridin-3-yl)-1H-imidazo[4,5-c]quinolin-1-yl]-2-methylpropan-2-ol]: the melting point fell in the range of 220.5 to 222 °C.

With `CCCS(=O)(=O)NCCCCn1c(COCC)nc2c(N)nc3cc(-c4cccnc4)ccc3c21` [Example 376, N-{4-[4-Amino-2-ethoxymethyl-7-(pyridin-3-yl)-1H-imidazo[4,5-c]quinolin-1-yl]butyl}propane-1-sulfonamide], the melting point lay within 178 to 180 °C. For `Cc1nc2c(N)nc3cc(-c4ccccc4)ccc3c2n1CCCS(C)(=O)=O` [Example 124, 2-Methyl-1-(3-methanesulfonylpropyl)-7-phenyl-1H-imidazo[4,5-c]quinolin-4-amine] the value was 203 to 205 °C; for `CCOCc1nc2c(N)nc3cc(-c4ccccc4)ccc3c2n1CCCCN1CCCS1(=O)=O` [Example 152, 1-[4-(1,1-Dioxidoisothiazolidin-2-yl)butyl]-2-ethoxymethyl-7-phenyl-1H-imidazo[4,5-c]quinolin-4-amine], 167 to 168.5 °C.

As for `COCc1nc2c(N)nc3cc(-c4cncnc4)ccc3c2n1CC(C)(C)O` [Example 395, 1-[4-Amino-2-methoxymethyl-7-(pyrimidin-5-yl)-1H-imidazo[4,5-c]quinolin-1-yl]-2-methylpropan-2-ol], the melting point was 220 to 220.5 °C.

On to `CC(C)Cn1cnc2c(N)nc3ccc(C=Cc4ccccc4)cc3c21` [Example 122, 1-(2-Methylpropyl)-8-styryl-1H-imidazo[4,5-c]quinolin-4-amine], for which the melting point is 228 to 230 °C. The value for `CCOCc1nc2c(N)nc3cc(-c4ccc(C#N)cc4)ccc3c2n1CC(C)C` [Example 110, 4-(4-Amino-2-ethoxymethyl-1-(2-methylpropyl)-1H-imidazo[4,5-c]quinolin-7-yl)benzonitrile] was 211 to 212 °C; that for `CCCc1nc2c(N)nc3cc(-c4cccnc4)ccc3c2n1CCCCNC(=O)OC(C)(C)C` [Example 158, tert-Butyl {4-[4-amino-2-propyl-7-(pyridin-3-yl)-1H-imidazo[4,5-c]quinolin-1-yl]butyl}carbamate] was 136 to 138 °C. For `COCCc1nc2c(N)nc3cc(-c4cccnc4)ccc3c2n1CC(C)(C)O` [Example 138, 1-[4-Amino-2-(2-methoxyethyl)-7-(pyridin-3-yl)-1H-imidazo[4,5-c]quinolin-1-yl]-2-methylpropan-2-ol] the value was 158 to 160 °C; for `CCCc1nc2c(N)nc3cc(-c4cccnc4)ccc3c2n1CCCCNC(=O)C(C)C` (hydrate or solvate) [Example 381, N-{4-[4-Amino-2-propyl-7-(pyridin-3-yl)-1H-imidazo[4,5-c]quinolin-1-yl]butyl}-2-methylpropanamide], 168 to 170 °C; for `COCCc1nc2c(N)nc3cc(-c4cccnc4)ccc3c2n1CC(C)C` [Example 145, 2-(2-Methoxyethyl)-1-(2-methylpropyl)-7-(pyridin-3-yl)-1H-imidazo[4,5-c]quinolin-4-amine], 207 to 208 °C.

Turning to `CC(C)Cn1cnc2c(N)nc3cc(-c4cncc(CO)c4)ccc3c21` [Example 429, 1-(2-Methylpropyl)-7-(5-hydroxymethylpyridin-3-yl)-1H-imidazo[4,5-c]quinolin-4-amine], the melting point is 210 to 211 °C. The value for `CC(C)Cn1cnc2c(N)nc3ccc(-c4ccc(C(C)(C)C)cc4)cc3c21` [Example 11, 8-(4-tert-Butylphenyl)-1-isobutyl-1H-imidazo[4,5-c]quinolin-4-amine] was over 250 °C. For `CCCc1nc2c(N)nc3cc(-c4cccnc4)ccc3c2n1CC1CCN(S(C)(=O)=O)CC1` (as salt: HCl) (hydrate or solvate) [Example 411, 1-{[1-(Methanesulfonyl)piperidin-4-yl]methyl}-2-propyl-7-(pyridin-3-yl)-1H-imidazo[4,5-c]quinolin-4-amine] the value was over 250 °C.

For the molecule `CC(C)Cn1cnc2c(N)nc3ccc(CCc4ccncc4)cc3c21` [Example 425, 1-(2-Methylpropyl)-8-(2-pyridin-4-ylethyl)-1H-imidazo[4,5-c]quinolin-4-amine], the melting point lay in the range of 221 to 224 °C. For `CCCNC(=O)NCCCCn1c(COCC)nc2c(N)nc3cc(-c4cccnc4)ccc3c21` [Example 378, N-{4-[4-Amino-2-ethoxymethyl-7-(pyridin-3-yl)-1H-imidazo[4,5-c]quinolin-1-yl]butyl}-N′-propylurea] the value was 191 to 193 °C; for `CCOCc1nc2c(N)nc3cc(-c4cccc(C(=O)N5CCOCC5)c4)ccc3c2n1CCCOC` [Example 174, {3-[4-Amino-2-ethoxymethyl-1-(3-methoxypropyl)-1H-imidazo[4,5-c]quinolin-7-yl]phenyl}morpholin-4-ylmethanone], 174 to 176 °C; for `CCCc1nc2c(N)nc3cc(/C=C/c4cccnc4)ccc3c2n1CC(C)C` (hydrate or solvate) [Example 446, (E)-1-(2-Methylpropyl)-2-propyl-7-[2-(pyridin-3-yl)vinyl]-1H-imidazo[4,5-c]quinolin-4-amine], 190 to 192 °C. For `CCCCc1nc2c(N)nc3cc(-c4cccnc4)ccc3c2n1CCNC(=O)NC(C)C` [Example 392, N-{2-[4-Amino-2-butyl-7-(pyridin-3-yl)-1H-imidazo[4,5-c]quinolin-1-yl]ethyl}-N′-(1-methylethyl)urea] the value was 240 to 241 °C; for `CCCCc1nc2c(N)nc3cc(-c4ccccc4OCCC)ccc3c2n1CC(C)C` [Example 6, 2-Butyl-1-isobutyl-7-(2-propoxyphenyl)-1H-imidazo[4,5-c]quinolin-4-amine], 174.5 to 176 °C; for `CC(C)Cn1cnc2c(N)nc3cc(C=Cc4ccccc4)ccc3c21` [Example 427, 1-(2-Methylpropyl)-7-styryl-1H-imidazo[4,5-c]quinolin-4-amine], 257 to 258 °C.

For the molecule `CCOCc1nc2c(N)nc3cc(-c4cccc(C(=O)N5CCCC5)c4)ccc3c2n1CC(C)(C)O` [Example 129, {3-[4-Amino-2-ethoxymethyl-1-(2-hydroxy-2-methylpropyl)-1H-imidazo[4,5-c]quinolin-7-yl]phenyl}pyrrolidin-1-ylmethanone], the melting point lay within 216.5 to 217.5 °C. For `CCCc1nc2c(N)nc3cc(-c4cccnc4)ccc3c2n1CC1CCN(C(=O)C(C)C)CC1` [Example 412, 1-{4-[4-Amino-2-propyl-7-(pyridin-3-yl)-1H-imidazo[4,5-c]quinolin-1-ylmethyl]piperidin-1-yl}-2-methylpropan-1-one] the value was 248 to 249 °C; for `COCCc1nc2c(N)nc3cc(-c4cccc(CO)c4)ccc3c2n1CCCN1CCCC1=O` (hydrate or solvate) [Example 185, 1-{3-[4-Amino-7-(3-hydroxymethylphenyl)-2-(2-methoxyethyl)-1H-imidazo[4,5-c]quinolin-1-yl]propyl}pyrrolidin-2-one], 184 to 187 °C; for `CCCc1nc2c(N)nc3cc(CCc4ccc(C)s4)ccc3c2n1CC(C)C` [Example 461, 1-(2-Methylpropyl)-7-[2-(5-methylthiophen-2-yl)ethyl]-2-propyl-1H-imidazo[4,5-c]quinolin-4-amine], 150 to 152 °C. On to `CCCc1nc2c(N)nc3cc(/C=C/c4ccc(C)s4)ccc3c2n1CC(C)C` [Example 442, (E)-1-(2-Methylpropyl)-7-[2-(5-methylthiophen-2-yl)vinyl]-2-propyl-1H-imidazo[4,5-c]quinolin-4-amine], for which the melting point lay in the range of 182 to 185 °C. For `COCCc1nc2c(N)nc3ccc(-c4csc5ccccc45)cc3c2n1CCCN1CCCC1=O` [Example 190, 1-{3-[4-amino-8-(benzo[b]thiophen-3-yl)-2-(2-methoxyethyl)-1H-imidazo[4,5-c]quinolin-1-yl]propyl}pyrrolidin-2-one] the value was 202 to 205 °C; for `CCOCc1nc2c(N)nc3cc(-c4cccnc4)ccc3c2n1CC1COC(C)(C)O1` (stereo not shown) [Example 159, 1-[(2,2-Dimethyl-1,3-dioxolan-4-yl)methyl]-2-ethoxymethyl-7-(pyridin-3-yl)-1H-imidazo[4,5-c]quinolin-4-amine], 181 to 182 °C. For `CCCCc1nc2c(N)nc3cc(-c4cccnc4)ccc3c2n1CCNC(=O)C(C)C` [Example 390, N-{2-[4-Amino-2-butyl-7-(pyridin-3-yl)-1H-imidazo[4,5-c]quinolin-1-yl]ethyl}-2-methylpropanamide] the value was 228 to 230 °C.
